Article PMC8911803, “The Antiprotozoal Activity of Papua New Guinea Propolis and Its Triterpenes” (Molecules, 2022)
Where “and” joins values, the source holds several entries; their conditions need not be identical. Identical values can stand only once. Like-named read-outs stand apart in the source and are kept apart here.

Columns and labels:
T. congolense 6C3 = experiment: microbe, parasite or virus in culture; type: cell-based, Trypanosoma congolense; conditions: for RF resistance factor: T. congolense 6C3 vs IL3000
U937 cells = experiment: Cytotoxicity against U937 cells (resazurin); type: cell-based, human; conditions: for AVG EC50 U937 cells / EC50: n = 3; for SI, selectivity index relative to T. b. brucei WT: EC50(U937)/EC50(TbbWT): U937 vs T. b. brucei WT
Procedure: U937 cells (European Collection of Cell Cultures Cat. No. 85011440, supplied by Sigma Aldrich, Dorset, UK) were cultured as described previously. U937 cells were grown to log phase at 37 °C and harvested at a density of 1 × 10^5 cells/mL in a 96-well plate (TPP, Trasadingen, Switzerland). Aliquots of 100 µL/well of the cells were added and the plate was incubated for 24 h at 37 °C, 5% CO2, 100% humidity. A 2-fold serial dilution of the test compound was carried out in growth medium, in another 96-well plate, and 100 μL of each dilution was then transferred to the cultured cells using a multichannel pipette, followed by another incubation for 24 h. Resazurin dye was then added at a final concentration of 10% (v/v) and the plates were incubated for a further 24 h, after which fluorescence was measured using a Wallac Victor 2 microplate reader (λ Ex/Em: 560/590 nm). The compounds and fractions were tested in triplicate, and cell viability was expressed as a percentage of the drug-free control. The resulting data were analysed using GraphPad Prism 8 to obtain dose-response curves and corresponding mean inhibitory concentration (EC50) values.

T. b. brucei B48 [1] = experiment: Drug sensitivity using cell count (growth curve) of T. b. brucei B48; type: cell-based, Trypanosoma b. brucei; conditions: 1×, 2× and 4× EC50, 2 × 10^5 cells/mL, up to 48 h
C. fasciculata = experiment: Antiprotozoal assay, C. fasciculata; type: cell-based, Crithidia fasciculata; conditions: Table 9
T. b. brucei B48 [2] = experiment: microbe, parasite or virus in culture; type: cell-based, Trypanosoma b. brucei; conditions: for RF resistance factor (EC50 B48/EC50 WT) / RF resistance factor: T. b. brucei B48 vs S427WT
Procedure: (§1) Alamar blue (resazurin) assays were used to obtain the EC50 values for PNG and its fractions in at least three independent determinations.
(§2) The extract and the purified compounds were cultured and tested against T. b. brucei, T. congolense and C. fasciculata as described previously. The T. b. brucei strains were a standard drug-sensitive lab strain, Lister 427 (wild-type) and the derived cell line B48 was developed from the wild-type by gene deletion of the drug transporter TbAT1 followed by in vitro adaptation to pentamidine, leading to the further loss of the gene encoding TbAQP2 [48], rendering it highly resistant to the diamidine and melaminophenyl arsenical classes of trypanocides. The T. congolense strains were the lab strain IL3000 and its diminazene-adapted clone 6C3 [29]. The C. fasciculata strain HS6 was a gift of Prof. Terry Smith (University of St Andrews, UK).

T. b. brucei S427WT = experiment: Alamar blue (resazurin) assay, T. b. brucei s427 wild-type; type: cell-based, Trypanosoma b. brucei
Procedure: as §1, §2

T. congolense IL3000 = experiment: Antiprotozoal assay, drug-sensitive T. congolense IL3000; type: cell-based, Trypanosoma congolense
[3] = Table 7, purified compounds, n = 3
[4] = drug-resistant strain vs standard strain
[5] = Table 5, purified compounds, n = 3
[6] = Table 5, purified compounds, n = 3, read-out: AVG EC50 T. b. brucei B48
[7] = Trypanosoma congolense, Table 7, purified compounds, n = 3
[8] = Homo sapiens, U-937, Table 8, purified compounds
[9] = Trypanosoma brucei, read-out: AVG EC50 T. b. brucei B48, Table 5, purified compounds, n = 3
[10] = Trypanosoma brucei, Table 5, purified compounds, n = 3
[11] = Trypanosoma congolense, Table 7, purified compounds, n = 3, read-out: AVG EC50 T. congolense IL3000

SMILES: CC(C)(O)[C@@H]1CC[C@]2(CO)CC[C@]3(C)[C@H](CC[C@@H]4[C@@]5(C)CC[C@H](O)C(C)(C)[C@@H]5CC[C@]43C)[C@@H]12 [Hydroxybetulin, 20-hydroxybetulin]
- RF resistance factor (T. congolense 6C3; Table 6): 0.48
- AVG EC50 T. congolense 6C3 (T. congolense 6C3; Table 6, diminazene-resistant, n = 3): 6.09 µg/mL
- AVG EC50 T. congolense 6C3 (T. congolense 6C3; [3]): 2.77 µg/mL
- EC50 (T. congolense 6C3; [3]): 6.09 µM
- fold activity against drug-resistant strain of T. congolense (T. congolense 6C3; [4]): > 2 fold
- AVG EC50 U937 cells (U937 cells; Table 4): 47.0 µg/mL
- AVG EC50 U937 cells (U937 cells; Table 8, purified compounds): 47.0 µg/mL
- EC50 (U937 cells; Table 8, purified compounds): 102 µM
- SI, selectivity index relative to T. b. brucei WT: EC50(U937)/EC50(TbbWT) (U937 cells): 23.0
- selectivity index against WT T. congolense (U937 cells; U937 vs WT T. congolense): 8.1
- selectivity index against resistant T. brucei (U937 cells; U937 vs resistant T. brucei): 48.5
- selectivity index against resistant T. congolense (U937 cells; U937 vs resistant T. congolense): 17.0
- Effect on in vitro growth of T. b. brucei B48 (cell count over time) (T. b. brucei B48 [1]): more trypanostatic effect
- Effect on in vitro growth of T. b. brucei B48 (cell count over time) (T. b. brucei B48 [1]; listed as 20-hydroxybetulin): trypanostatic
- AVG EC50 C. fasciculata (C. fasciculata): 23.4 µg/mL
- RF resistance factor (EC50 B48/EC50 WT) (T. b. brucei B48 [2]; Table 3): 0.47
- AVG EC50 T. b. brucei B48 (T. b. brucei B48 [2]; Table 3, pentamidine-resistant, n = 3): 2.09 µg/mL
- RF resistance factor (T. b. brucei B48 [2]; Table 5): 0.47
- AVG EC50 T. b. brucei B48 (T. b. brucei B48 [2]; [5]): 0.97 µg/mL
- EC50 (T. b. brucei B48 [2]; [6]): 2.09 µM
- fold activity against drug-resistant strain of T. b. brucei (T. b. brucei B48 [2]; [4]): > 2 fold
- AVG EC50 T. b. brucei S427WT (T. b. brucei S427WT; Table 3, n = 3): 2.04 µg/mL
- AVG EC50 T. b. brucei S427WT (T. b. brucei S427WT; [5]): 2.04 µg/mL
- EC50 (T. b. brucei S427WT; [5]): 4.44 µM
- AVG EC50 T. b. brucei S427WT (T. b. brucei S427WT; Table 5, purified compounds, n = 3, listed as hydroxybetulin): 2.0 ± 0.1 µg/mL
- fold more active than betulinic acid against T. b. brucei (T. b. brucei S427WT; relative to betulinic acid): 15 fold
- AVG EC50 T. congolense IL3000 (T. congolense IL3000; Table 6, n = 3): 5.77 µg/mL
- AVG EC50 T. congolense IL3000 (T. congolense IL3000; [3]): 5.77 µg/mL
- AVG EC50 T. congolense IL3000 (T. congolense IL3000; Table 7, purified compounds, n = 3, listed as hydroxybetulin): 5.8 ± 1.3 µg/mL

SMILES: N=C(N)c1ccc(/N=N/Nc2ccc(C(=N)N)cc2)cc1 [Diminazene, reference compound]
- RF resistance factor (T. congolense 6C3; Table 6): 5.90
- RF resistance factor (T. congolense 6C3; Table 7): 5.5
- EC50 (T. congolense 6C3; Trypanosoma congolense, Table 6, diminazene control, footnote: EC50 in µM): 1.54 µM
- EC50 (T. congolense 6C3; [7]): 1.55 µM
- EC50 (T. congolense IL3000; Trypanosoma congolense, read-out: AVG EC50 T. congolense IL3000, Table 6, diminazene control, footnote: EC50 in µM): 0.26 µM
- EC50 (T. congolense IL3000; Trypanosoma congolense, read-out: AVG EC50 T. congolense IL3000, Table 7, purified compounds, n = 3): 0.28 µM

SMILES: C[C@H]1[C@H](C)CC[C@]2(C(=O)O)CC[C@]3(C)C(=CC[C@@H]4[C@@]5(C)C[C@@H](O)[C@H](O)[C@@](C)(CO)[C@@H]5[C@H](O)C[C@]43C)[C@H]12 [Madecassic acid, madecassic acid]
- RF resistance factor (T. congolense 6C3; Table 7): 0.88
- EC50 (T. congolense 6C3; [7]): 19.8 µg/mL and 59.1 µM
- EC50 (U937 cells; [8]): 90.7 µg/mL and 180 µM
- SI, selectivity index relative to T. b. brucei WT: EC50(U937)/EC50(TbbWT) (U937 cells): 5.0
- RF resistance factor (T. b. brucei B48 [2]; Table 5): 0.88
- EC50 (T. b. brucei B48 [2]; [9]): 16 µg/mL and 31.7 µM
- EC50 (T. b. brucei S427WT; [10]): 18.1 µg/mL and 36 µM
- EC50 (T. congolense IL3000; [11]): 22.6 µg/mL and 67.6 µM

SMILES: C=C(C)[C@@H]1CC[C@]2(CO)CC[C@]3(C)[C@H](CC[C@@H]4[C@@]5(C)CC[C@H](O)C(C)(C)[C@@H]5CC[C@]43C)[C@@H]12 [Betulin, betulin]
- RF resistance factor (T. congolense 6C3; Table 7): 1.03
- EC50 (T. congolense 6C3; [7]): 22.1 µg/mL and 49.9 µM
- EC50 (U937 cells; [8]): 55.8 µg/mL and 126 µM
- SI, selectivity index relative to T. b. brucei WT: EC50(U937)/EC50(TbbWT) (U937 cells): 2.1
- RF resistance factor (T. b. brucei B48 [2]; Table 5): 0.84
- EC50 (T. b. brucei B48 [2]; [9]): 22.3 µg/mL and 50.5 µM
- EC50 (T. b. brucei S427WT; [10]): 26.6 µg/mL and 60.1 µM
- EC50 (T. congolense IL3000; [11]): 21.5 µg/mL

SMILES: N=C(N)c1ccc(OCCCCCOc2ccc(C(=N)N)cc2)cc1 [Pentamidine, pentamidine, reference compound]
- Effect on in vitro growth of T. b. brucei B48 (cell count over time) (T. b. brucei B48 [1]): parasites were almost completely eliminated from the media after 32 h
- RF resistance factor (EC50 B48/EC50 WT) (T. b. brucei B48 [2]; Table 3): 210
- RF resistance factor (EC50 B48/EC50 WT) (T. b. brucei B48 [2]; Table 3, listed as pentamidine): 210.8
- RF resistance factor (T. b. brucei B48 [2]; Table 5): 145
- EC50 (T. b. brucei B48 [2]; Trypanosoma brucei, read-out: AVG EC50 T. b. brucei B48, Table 3, pentamidine control, footnote: values in µM): 0.721 µM
- EC50 (T. b. brucei B48 [2]; [9]): 0.62 µM
- EC50 (T. b. brucei S427WT; Trypanosoma brucei, Table 3, pentamidine control, footnote: values in µM): 0.0034 µM
- EC50 (T. b. brucei S427WT; [10]): 0.0043 µM

SMILES: CC(CC/C=C(/CO)C(=O)O)C1CCC2(C)C3CCC4C(C)(C)C(O)CCC45CC35CCC12C (stereo not shown) [Hydroxymangiferolic acid, 27-hydroxyisomangiferolic acid]
- RF resistance factor (T. congolense 6C3; Table 7): 0.94
- AVG EC50 T. congolense 6C3 (T. congolense 6C3; [3]): 15.7 µg/mL
- EC50 (T. congolense 6C3; [3]): 33.2 µM
- EC50 (U937 cells; Table 8, purified compounds): 260 µM
- SI, selectivity index relative to T. b. brucei WT: EC50(U937)/EC50(TbbWT) (U937 cells): >7.4
- RF resistance factor (T. b. brucei B48 [2]; Table 5): 0.87
- AVG EC50 T. b. brucei B48 (T. b. brucei B48 [2]; [5]): 11.8 µg/mL
- EC50 (T. b. brucei B48 [2]; [6]): 25 µM
- AVG EC50 T. b. brucei S427WT (T. b. brucei S427WT; [5]): 13.6 µg/mL
- EC50 (T. b. brucei S427WT; [5]): 28.8 µM
- AVG EC50 T. congolense IL3000 (T. congolense IL3000; [3]): 16.7 µg/mL
- EC50 (T. congolense IL3000; Table 7, purified compounds, n = 3, read-out: AVG EC50 T. congolense IL3000): 35.3 µM

SMILES: C=C(C)[C@@H]1CC[C@]2(C(=O)O)CC[C@]3(C)[C@H](CC[C@@H]4[C@@]5(C)CC[C@H](O)C(C)(C)[C@@H]5CC[C@]43C)[C@@H]12 [Betulinic acid, betulinic acid]
- RF resistance factor (T. congolense 6C3; Table 7): 1.05
- EC50 (T. congolense 6C3; [7]): 18.1 µg/mL
- EC50 (U937 cells; [8]): 51.7 µg/mL and 113 µM
- SI, selectivity index relative to T. b. brucei WT: EC50(U937)/EC50(TbbWT) (U937 cells): 2.1
- RF resistance factor (T. b. brucei B48 [2]; Table 5): 0.81
- EC50 (T. b. brucei B48 [2]; [9]): 19.6 µg/mL and 42.9 µM
- EC50 (T. b. brucei S427WT; [10]): 24.2 µg/mL and 53.1 µM
- EC50 (T. congolense IL3000; [11]): 17.2 µg/mL
